Results on one molecule are retold here after US20050124032A1 (priority 2002, published 2005).

This assay concerns X. dendrorhous Y-2476. The assay is classed as cell-based, Xanthophyllomyces dendrorhous.

In the case of `CC1=C(C)C(=O)C(C)=C(C)C1=O` [duroquinone], the Reduction of growth is reported as 15-25%.
